From publication PMC5667506, “Potent and selective inhibition of SH3 domains with dirhodium metalloinhibitors” (Chemical Science, 2015)
Blank lines part the entries; values can stand above or below the substance they belong to. Rh2(OAc)3 = dirhodium(II) triacetate, bound to the side-chain carboxylate

Key:
[1] = target: T1, Abl SH3 domain (Homo sapiens, UniProt P00519); assay: ITC binding to Abl SH3 domain
T1 construct: The abl SH3 domain was amplified by PCR using Phusion DNA polymerase; GST (N, cleaved yes); made in house; host or cells: E. coli BL21 (DE3)
Protocol: (§1) All chemical reagents were purchased from Sigma-Aldrich and were used without further purification.
(§2) Peptide synthesis. All peptides were synthesized manually or with an AAPPTEC APEX 396 Automated Multipeptide Synthesizer using standard solid-phase Fmoc protocols.1,2 Peptides were prepared as C-terminal amides using Rink amide MBHA resin (AAPPTEC) and were acetylated at the N-terminus prior to cleavage from the resin. Peptides and metallopeptides were purified by reverse-phase HPLC.
(§3) HPLC separation. Reverse-phase HPLC was performed on a Shimadzu CBM-20A instrument with Phenomenex Jupiter 4μ Proteo 90A (250 × 15 mm preparative) and Phenomenex Jupiter 4μ Proteo 90A (250 × 4.6 mm analytical) columns. The columns were eluted with a gradient of acetonitrile in water (10-90%) (flow rates of 8 mL/min and 1 mL/min for preparative and analytical columns, respectively). Trifluoroacetic acid (0.1%) was added to all eluents.
(§4) FPLC separation. Analytical FPLC was performed on an ÄKTA instrument with Superdex Peptide PE 7.5/300 column. The column was equilibrated with buffer (150 mM NaCl, 50 mM Tris, pH 7.0) at flow rate of 0.2 mL/min.
(§5) ITC analysis. ITC experiments were carried out on a VP-ITC instrument (MicroCal) at 25 °C. Titrations of 275 μM peptide into 18 μM SH3 domain proteins were used for all titrations, except for the titration of S2ERh into Lyn SH3 domain, where the lower concentrations of 69 µM S2ERh peptide and 4 µM Lyn SH3 were used to attain a c-value for the titration within the accepted limts for ITC experiments ([…]).3
(§6) Heats of dilutions were measured independently for each experiment by titrating 275 μM peptide into buffer (20 mM phosphate buffer, pH 7, 150 mM NaCl, 1 mM EDTA). All experimental data were fitted using a one set of sites binding model in Origin software (MicroCal) except for the data with Hck SH3 domain. With Hck only, the non-peptide specific binding of dirhodium tetraacetate to Hck SH3 domain could not be treated as negligible, despite the very weak interaction (88 µM), due to the larger enthalpy contribution observed for non-specific binding to this SH3 domain, so the titrations of peptide into Hck were fitted using a 2 set of sites binding model where the stoichiometry for the second set of sites was fixed at 2.0. […]
(§7) Mass spectrometry. ESI-MS was performed on a Bruker Daltonics micrOTOF instrument.
(§8) Known compounds and proteins. Several metallopeptides (S2ERh, L3ERh, R5ERh, and 13DRh) were reported previously and were prepared by known protocols;4 alkyne-diazo 3,5 3-azido-7-hydroxycoumarin6 were synthesized following reported procedures; fyn, yes, lck, and src SH3 protein domains were prepared following published procedures.5 Abl, hck, and lyn SH3 domain plasmids were adapted from the previously reported genes;7 the gene templates were obtained from Addgene, ID

[2] = target: T2, Lck SH3 domain (Homo sapiens, UniProt P06239); assay: ITC binding to Lck SH3 domain
T2 construct: fyn, yes, lck, and src SH3 protein domains were prepared following published procedures; made in house
Protocol: All chemical reagents were purchased from Sigma-Aldrich and were used without further purification. […]
as §5, §6
Known compounds and proteins. […]

[3] = target: T3, Hck SH3 domain (Homo sapiens, UniProt P08631); assay: ITC binding to Hck SH3 domain (two-sets-of-sites fit); details: high affinity specific site
T3 construct: The hck SH3 domain was amplified by PCR using Phusion DNA polymerase; GST (N, cleaved yes); made in house; host or cells: E. coli BL21 (DE3)
Protocol: as §1, §2
as §3, with “eluents. […]” for “eluents.”
as §5, §6, §7
as §8, with “ID […]” for “ID”
Table S1. Table of the thermodynamic parameters for binding of metallopeptides to SH3 domains, determined by isothermal […]
Protein Peptide Stoichiometry Kd ΔH -TΔS ΔG
(nM) (kcal mol-1) (kcal mol-1) (kcal mol-1)
* The binding isotherms for metallopeptide interactions with Hck were fitted using a two -sets-of-sites model with the stoichiometry for the second set of sites fixed to 2.0. The second set of binding sites was used to account for the weak, but not negligable, binding of the peptide to another surface of Hck SH3 domain, presumably through non-specific interactions of the dirhodium tetraacetate group. The thermodynamics for the high affinity specific binding site interaction are provided in this

[4] = target: T4, Yes SH3 domain (Homo sapiens, UniProt P07947); assay: ITC binding to Yes SH3 domain; details: Yes SH3, ITC
T4 construct: fyn, yes, lck, and src SH3 protein domains were prepared following published procedures; made in house
Protocol: as §1, §2, §3, §4, §5, §6, §7, §8

T1 sequence (P00519 60-121): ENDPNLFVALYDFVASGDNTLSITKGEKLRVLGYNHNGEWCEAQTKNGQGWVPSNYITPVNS
T4 sequence (P07947 91-152 limits assumed): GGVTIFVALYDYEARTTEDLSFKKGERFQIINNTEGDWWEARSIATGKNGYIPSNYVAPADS
T3 sequence (P08631 77-139): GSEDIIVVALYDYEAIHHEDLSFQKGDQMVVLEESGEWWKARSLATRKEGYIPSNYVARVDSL
T2 sequence (P06239 61-121 limits assumed): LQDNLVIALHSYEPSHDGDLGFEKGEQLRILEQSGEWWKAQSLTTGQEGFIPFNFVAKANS

Kd ([1]; 25 °C): 5750 nM
Kd ([2]; 25 °C): 481 nM
Substance: AcVELARRPLPPLPN-NH2 (Ac-VE(Rh2(OAc)3)LARRPLPPLPN-NH2; also: metal complex: Glu2 carboxylate bound to dirhodium(II) triacetate) [S2E^Rh, rhodium(II) metallopeptide made from S2E peptide (Ac…-NH2) and Rh2(tfa)(OAc)3]

Stoichiometry [1]: 1.5
-TΔS ([1]; 25 °C): 10.6 kcal/mol
ΔG ([1]; 25 °C): -7.1 kcal/mol
ΔH ([1]; 25 °C): -17.8 kcal/mol
Stoichiometry [2]: 1.1
-TΔS ([2]; 25 °C): 2.6 kcal/mol
ΔG ([2]; 25 °C): -8.6 kcal/mol
ΔH ([2]; 25 °C): -11.2 kcal/mol
-TΔS ([3]; 25 °C): 6.9 kcal/mol
ΔG ([3]; 25 °C): -10.4 kcal/mol
ΔH ([3]; 25 °C): -17.2 kcal/mol
Stoichiometry [3]: 0.95
Stoichiometry [4]: 0.79
-TΔS ([4]; 25 °C): 9.1 kcal/mol
ΔG ([4]; 25 °C): -8.5 kcal/mol
ΔH ([4]; 25 °C): -17.6 kcal/mol
Substance: AcVELARRPLPPLPN-NH2 [S2E^Rh]

Kd ([3]; 25 °C): 26 nM
Kd ([4]; 25 °C, read-out: SH3 Kd): 610 nM
Substance: AcVELARRPLPPLPN-NH2 (Ac-VELARRPLPPLPN-NH2; also: Glu2 side-chain carboxylate bound to Rh2(OAc)3) [S2E^Rh, rhodium(II) metallopeptide made from S2E peptide (Ac…-NH2) and Rh2(tfa)(OAc)3]
